A short description of data set [1]: Plasma stability, human. In kind it is in vitro ADME. Here is the method: Plasma stability for Compound AA and Compound BB was investigated. The following table indicates the percent of Compound AA and Compound BB remaining after 60 minutes.
The subject of data set [2] is rat. The experiment in a line: Positive emotional learning (PEL) test, 50-kHz USVs. In kind it is in vivo. Conditions: administered one hour prior to PEL testing. Here is the method:
Experiments were conducted as described in Burgdorf et al., “The effect of selective breeding for differential rates of 50-kHz ultrasonic vocalizations on emotional behavior in rats,” Devel. Psychobiol., 51:34-46 (2009).
The PEL assay measures the acquisition of positive (hedonic) 50-kHz ultrasonic vocalizations (USVs) to a social stimulus, heterospecific rough and tumble play stimulation. Heterospecific rough-and-tumble play stimulation was administered by the experimenter's right hand. Animals received 3 min of heterospecific rough-and-tumble play that consisted of alternating 15 sec blocks of heterospecific play and 15 sec of no-stimulation. High frequency ultrasonic vocalizations (USVs) were recorded and analyzed by sonogram with Avasoft SASlab Pro (Germany) as previously described by Burgdorf et al., “Positive emotional learning is regulated in the medial prefrontal cortex by GluN2B-containing NMDA receptors,” Neuroscience, 192:515-523 (2011). Frequency modulated 50-kHz USVs that occurred during each of the no-stimulation periods were quantified to measure PEL. Animals were not habituated to play stimulation before testing. Positive emotional learning was measured during the conditioned stimulus (CS) trials preceding the tickle unconditioned stimulus (UCS) trials. […] Running speed for animals to self administer tickling at the end of the 3 min session was also measured.

Data set [3] in a line: Microsomal stability, human. In kind it is in vitro ADME. Conditions: human microsomes. Here is the method: Microsomal stability for Compound AA and Compound BB was investigated. The following table indicates the percent of Compound AA and Compound BB remaining after 60 minutes.
Data set [4] in a line: Plasma protein binding assay, human. In kind it is in vitro ADME. Conditions: read-out: Plasma Protein binding (% Bound) Plasma human (converted). Here is the method:
(§1) Bound drug concentration in the brain was also investigated, and plasma protein binding assays were conducted. The following table (% bound) indicates results for Compound AA and Compound BB.

The nature of data set [5]: Plasma protein binding assay, rat. In kind it is in vitro ADME. The following applies: read-out: Plasma Protein binding (% Bound) Plasma rat (converted). Here is the method:
as §1

The nature of data set [6]: Bioavailability and CSF/brain/plasma exposure after PO administration. In kind it is in vivo, Sprague Dawley rats. Conditions: rat; for Kp: male, Sprague Dawley, 10 mg/kg PO. Here is the method:
The bioavailablity of Compound BB was investigated following PO administration. CSF, brain and plasma samples were analyzed following dosing with compound BB (10 mg/kg). The following table indicates the bioavailablity and CSF/plasma and brain/plasma ratios.
Sprague Dawley rats were dosed intravenously with 2 mg/kg of Compound AA. A second group of Sprague Dawley rats was dosed per os with 10 mg/kg of compound AA. Plasma samples were drawn over a 24 h period and analyzed for Compound AA. FIG. 3A presents the mean plasma concentration-time profile of Compound AA following the single intraveneous (2 mg/kg) and oral (10 mg/kg) dose administration in male Sprague Dawley rats over the 24 hour period.
In another experiment. Sprague Dawley rats were dosed intravenously with 2 mg/kg of Compound BB. A second group of Sprague Dawley rats was dosed per os with 10 mg/kg of compound BB. Plasma samples were drawn over a 24 h period and analyzed for Compound BB. FIG. 3B presents the mean plasma concentration-time profile of Compound BB following the single intraveneous (2 mg/kg) and oral (10 mg/kg) dose administration in male Sprague Dawley rats over the 24 hour period.
In another experiment, Sprague Dawley rats were dosed per os with 10 mg/kg of Compound BB. Plasma, brain, and CSF samples were analyzed at various time points over a 24 hour period.

In data set [7] the test system is SD rats. The data set can be described thus: Novelty-induced hypophagia (NIH) test. The following applies: 1-100 μg/kg PO, 1 h before test. In kind it is in vivo, rat. An excerpt: This Example relates to the assessment of the anxiolytic effect of treatment in the stress-induced anxiety model, novelty induced hypophagia. This assay is also sensitive to the rapid acting antidepressants ketamine and GLYX-13 (Li et al., “mTOR-dependent synapse formation underlies the rapid antidepressant effects of NMDA antagonists,” Science 329:959-964, 2010; and Burgdorf et al., 2013). See also Bodnoff et al., “A comparison of the effects of diazepam versus several typical and atypical anti-depressant drugs in an animal model of anxiety,” Psychopharmacology, 97:277-279, 1989.
Testing was conducted as described by (Burgdorf et al., 2013). […] Animals were food deprived overnight before testing, and lab chow was placed in the center chamber of an open field (40×40×20 cm) for 10 min under dim red lighting. Between testing each animal, feces and urine were removed from the apparatus. After NIH testing, the latency to eat in the animal's home cage was determined as a control to ensure the effect on eating is specific to the novel environment. Animals were videotaped, and latency (sec) for the animal to take the first bite of food was manually scored offline.
A single point per dose group that was 2 or more standard deviations from the mean was considered an outlier and was excluded from the data analysis. […]

SMILES strings stand for the structures. Like-named read-outs stand apart in the source and are kept apart here.

For `C[C@@H](O)[C@@H](C(N)=O)N1C[C@@]2(CCCN2S(C)(=O)=O)C1=O` [Compound BB, (2S,3R)-3-hydroxy-2-((S)-5-(methylsulfonyl)-1-oxo-2,5-diazaspiro[3,4]octan-2-yl)butanamide], the “Plasma Stability (% remaining at 60 min) Human” value in data set [1] is 81%. In addition, in data set [2], the “positive emotional learning as measured by rat USVs” value is “increases positive emotional learning”. In addition, the “Microsomal Stability (% remaining at 60 min) Human” value in data set [3] was found to be 92%. Further, the figures for the fraction unbound in data set [4] and in data set [5] were 0.789 and 0.65, respectively. Also, the Kp in data set [6] (CSF, read-out: CSF/plasma ratio) amounted to 0.48; in data set [6] (brain, read-out: Brain/plasma ratio), 0.12. Also, the bioavailability in data set [6] (plasma, PO administration (10 mg/kg PO, 2 mg/kg IV), male Sprague Dawley rats, read-out: Bioavailablity (% F)) was 82%. The “latency to eat in the novelty-induced hypophagia (NIH) test” value in data set [7] is listed as “produces an anxiolytic effect”.

Source of the values: patent US10195179B2, “Spiro-lactam NMDA receptor modulators and uses thereof” (Aptinyx Inc., priority 2016, dated 2019).
